The target of test [1] is T1, CDK12 (nuclear staining in CAL-120 cells) (Homo sapiens, UniProt Q9NYV4).
T1 construct: endogenous in cells; host or cells: CAL-120 human breast cancer cells (DSMZ ACC 459)
As to the kind of experiment: CDK12 nuclear protein level: immunofluorescence/high content analysis (CAL-120). In kind it is cell-based. As to conditions: for DC50: CAL-120 cells, 24 h, immunofluorescence, 50% reduction of nuclear CDK12 staining intensity, median, read-out: CDK12 degradation IF, DC50- [mol/l] (median); for (IC50 CDK12 high ATP) to (Degradation DC50 CDK12) ratio: ratio of IC50 CDK12 high ATP kinase assay to DC50 CDK12 degradation (IF, CAL-120). In outline: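 DC50 is the degrader concentration that halves nuclear CDK12 immunofluorescence relative to controls, measured by high-content imaging. CAL-120 cells were exposed to compound for 24 h at 37 °C before PFA fixation, and signal was normalized to DMSO and control wells.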

For a further test, the target named is CDK12/CycK (Homo sapiens, UniProt Q9NYV4). As to the kind of experiment: CDK12/CycK high ATP kinase assay (TR-FRET, 2 mM ATP). Conditions: 2 mM ATP (high ATP); median; read-out: CDK12/CyclinK, 2 mM ATP (high ATP), IC50-[mol/l] (median). The test is classed as biochemical. The essentials:
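Read-out is TR-FRET (Eu-anti-rabbit IgG, anti-phospho-c-Myc Ser62 antibody, streptavidin-XL665) after EDTA stop. Reaction ran 60 min at 22 °C using 1 µM biotin-peptide and high ATP (2 mM) with roughly 0.75 nM recombinant CDK12/CycK, after 15 min compound pre-binding; normalised emission ratios yield IC50.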
On the technique in general: TR-FRET usually uses a lanthanide donor and a delayed reading to cut background.

The text below walks through data of patent publication US20230117034A1, “PYRAZOLOTRIAZINES” (Bayer Aktiengesellschaft, priority 2019, published 2023).

The structures appear in SMILES notation.

Chain of CDK12/CycK (Q9NYV4 with tags, fused parts or gaps): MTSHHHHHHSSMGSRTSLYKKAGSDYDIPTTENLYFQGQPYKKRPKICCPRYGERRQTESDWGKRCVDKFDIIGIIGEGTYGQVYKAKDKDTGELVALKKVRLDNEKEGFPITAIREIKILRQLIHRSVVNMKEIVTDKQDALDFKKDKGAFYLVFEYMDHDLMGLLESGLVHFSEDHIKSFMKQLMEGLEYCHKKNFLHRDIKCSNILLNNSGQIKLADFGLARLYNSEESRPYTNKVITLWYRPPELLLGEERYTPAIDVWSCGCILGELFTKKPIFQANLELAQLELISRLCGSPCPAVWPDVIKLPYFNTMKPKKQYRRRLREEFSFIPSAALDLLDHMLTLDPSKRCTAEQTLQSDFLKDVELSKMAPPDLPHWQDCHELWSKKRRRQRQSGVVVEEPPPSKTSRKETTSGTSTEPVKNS
Chain of CDK12/CycK (O75909 1-300 partner limits assumed): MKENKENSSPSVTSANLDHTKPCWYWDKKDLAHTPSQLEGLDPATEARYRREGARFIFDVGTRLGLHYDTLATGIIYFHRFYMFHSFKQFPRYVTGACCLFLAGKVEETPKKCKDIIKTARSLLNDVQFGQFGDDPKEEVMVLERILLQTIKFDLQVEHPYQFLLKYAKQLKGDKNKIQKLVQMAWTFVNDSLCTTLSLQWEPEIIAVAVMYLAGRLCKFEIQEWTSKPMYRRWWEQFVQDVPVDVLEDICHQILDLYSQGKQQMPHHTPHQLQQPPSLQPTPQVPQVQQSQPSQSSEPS
T1 sequence (Q9NYV4 whole entry): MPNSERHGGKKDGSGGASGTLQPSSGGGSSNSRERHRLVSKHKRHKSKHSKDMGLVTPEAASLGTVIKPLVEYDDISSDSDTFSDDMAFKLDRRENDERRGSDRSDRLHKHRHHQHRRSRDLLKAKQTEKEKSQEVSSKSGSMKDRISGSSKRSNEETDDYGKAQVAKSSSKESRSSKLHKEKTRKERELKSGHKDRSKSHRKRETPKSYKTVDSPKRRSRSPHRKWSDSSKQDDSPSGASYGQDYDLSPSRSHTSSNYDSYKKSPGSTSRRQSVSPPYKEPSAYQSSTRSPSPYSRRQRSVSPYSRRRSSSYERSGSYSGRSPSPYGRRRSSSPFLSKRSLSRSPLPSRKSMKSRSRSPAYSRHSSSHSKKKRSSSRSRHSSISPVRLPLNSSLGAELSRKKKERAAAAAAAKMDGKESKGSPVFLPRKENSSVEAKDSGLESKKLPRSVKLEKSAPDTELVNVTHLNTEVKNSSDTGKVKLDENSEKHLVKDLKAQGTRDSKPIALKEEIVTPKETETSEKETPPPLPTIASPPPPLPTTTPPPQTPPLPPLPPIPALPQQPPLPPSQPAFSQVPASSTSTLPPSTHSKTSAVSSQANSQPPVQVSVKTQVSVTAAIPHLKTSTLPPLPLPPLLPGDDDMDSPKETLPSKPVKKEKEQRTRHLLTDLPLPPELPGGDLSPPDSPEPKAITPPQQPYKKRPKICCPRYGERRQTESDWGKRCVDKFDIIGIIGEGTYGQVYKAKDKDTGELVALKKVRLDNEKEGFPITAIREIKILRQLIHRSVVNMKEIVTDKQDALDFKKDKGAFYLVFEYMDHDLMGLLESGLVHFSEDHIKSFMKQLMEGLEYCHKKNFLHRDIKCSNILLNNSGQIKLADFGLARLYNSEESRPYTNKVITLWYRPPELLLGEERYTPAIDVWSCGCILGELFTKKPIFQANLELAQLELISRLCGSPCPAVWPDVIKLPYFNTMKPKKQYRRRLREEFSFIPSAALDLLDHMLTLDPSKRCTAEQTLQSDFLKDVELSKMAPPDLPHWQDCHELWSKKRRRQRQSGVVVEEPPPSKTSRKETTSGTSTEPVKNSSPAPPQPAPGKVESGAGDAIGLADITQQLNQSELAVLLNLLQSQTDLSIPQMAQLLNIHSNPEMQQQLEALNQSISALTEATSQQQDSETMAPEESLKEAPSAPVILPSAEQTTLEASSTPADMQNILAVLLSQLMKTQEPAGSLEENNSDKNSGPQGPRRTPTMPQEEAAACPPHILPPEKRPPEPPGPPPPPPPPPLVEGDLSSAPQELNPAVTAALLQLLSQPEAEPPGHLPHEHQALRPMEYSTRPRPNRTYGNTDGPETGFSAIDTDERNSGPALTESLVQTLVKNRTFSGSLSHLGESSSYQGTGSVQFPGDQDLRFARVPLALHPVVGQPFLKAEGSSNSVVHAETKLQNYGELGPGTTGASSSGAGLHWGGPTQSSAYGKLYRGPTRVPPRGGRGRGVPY
T1 sequence (O75909 whole entry partner): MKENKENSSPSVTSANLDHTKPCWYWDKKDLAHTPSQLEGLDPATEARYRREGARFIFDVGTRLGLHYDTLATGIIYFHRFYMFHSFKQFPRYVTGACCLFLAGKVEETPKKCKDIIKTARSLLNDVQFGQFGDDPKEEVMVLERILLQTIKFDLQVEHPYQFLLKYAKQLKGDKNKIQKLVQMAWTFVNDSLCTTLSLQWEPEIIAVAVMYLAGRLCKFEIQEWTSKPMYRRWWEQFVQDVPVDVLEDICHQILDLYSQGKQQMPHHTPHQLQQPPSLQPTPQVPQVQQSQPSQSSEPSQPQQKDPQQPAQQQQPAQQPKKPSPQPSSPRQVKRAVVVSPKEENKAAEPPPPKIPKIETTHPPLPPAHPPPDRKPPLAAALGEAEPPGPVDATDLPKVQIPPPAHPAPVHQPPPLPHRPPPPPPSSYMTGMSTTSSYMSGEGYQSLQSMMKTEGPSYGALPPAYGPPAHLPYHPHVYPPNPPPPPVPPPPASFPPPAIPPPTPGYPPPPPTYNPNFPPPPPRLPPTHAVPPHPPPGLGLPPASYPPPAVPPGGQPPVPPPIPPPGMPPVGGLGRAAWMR

Regarding `Fc1c(Cl)ccc2[nH]c(CNc3nc(N4CCOCC4)nc4c(C5CC5)cnn34)nc12` [Example 370, N-[(5-chloro-4-fluoro-1H-benzimidazol-2-yl)methyl]-8-cyclopropyl-2-(morpholin-4-yl)pyrazolo[1,5-a][1,3,5]triazin-4-amine], in test [1], the DC50 was 0.00219 µM and the “(IC50 CDK12 high ATP) to (Degradation DC50 CDK12) ratio” value is reported as 77. Besides, on CDK12/CycK, the IC50 was determined as 0.169 µM.
On the same counts, the results for `CN1CCN(c2nc(NCc3nc4cc(Cl)c(Cl)cc4[nH]3)n3ncc(Br)c3n2)CC1` [Example 330, 8-bromo-N-[(5,6-dichloro-1H-benzimidazol-2-yl)methyl]-2-(4-methylpiperazin-1-yl)pyrazolo[1,5-a][1,3,5]triazin-4-amine] are 0.00289 µM, 1601 and 4.63 µM.
On the same counts, the results for `CN1CCN(c2nc(NCc3nc4c(F)c(F)ccc4[nH]3)n3ncc(Cl)c3n2)CC1` [Example 358, 8-chloro-N-[(4,5-difluoro-1H-benzimidazol-2-yl)methyl]-2-(4-methylpiperazin-1-yl)pyrazolo[1,5-a][1,3,5]triazin-4-amine] are 0.00533 µM, 2182 and 11.6 µM.
The corresponding values for `FC(F)(F)Oc1cccc2[nH]c(CNc3nc(N4C[C@H]5CC[C@@H](C4)N5)nc4c(Br)cnn34)nc12` [Example 381, 8-bromo-2-[(1R,5S)-3,8-diazabicyclo[3.2.1]octan-3-yl]-N-{[4-(trifluoromethoxy)-1H-benzimidazol-2-yl]methyl}pyrazolo[1,5-a][1,3,5]triazin-4-amine] are 0.0222 µM, 266 and 5.91 µM.
Consider `Brc1cnn2c(NCc3nc4ccccc4[nH]3)nc(N3CCN4CCC3C4)nc12` (stereo not drawn) [Example 350, N-[(1H-benzimidazol-2-yl)methyl]-8-bromo-2-(1,4-diazabicyclo[3.2.1]octan-4-yl)pyrazolo[1,5-a][1,3,5]triazin-4-amine], for which, in test [1], the DC50 was determined as 0.00655 µM and the “(IC50 CDK12 high ATP) to (Degradation DC50 CDK12) ratio” value is listed as 1190. In addition, the IC50 at CDK12/CycK stood at 7.8 µM.
For the compound `CN1CCN(c2nc(NCc3nc4cc(F)c(Cl)cc4[nH]3)n3ncc(Br)c3n2)CC1` [Example 337, 8-bromo-N-[(6-chloro-5-fluoro-1H-benzimidazol-2-yl)methyl]-2-(4-methylpiperazin-1-yl)pyrazolo[1,5-a][1,3,5]triazin-4-amine], in test [1], the DC50 stood at 0.00185 µM and the “(IC50 CDK12 high ATP) to (Degradation DC50 CDK12) ratio” value worked out at 4722. Besides, on CDK12/CycK, the IC50 came out at 8.72 µM.
On the same counts, the results for `FC(F)(F)c1ccc2[nH]c(CNc3nc(N4CCOCC4)nc4c(C5CC5)cnn34)nc2c1` [Example 322, 8-cyclopropyl-2-(morpholin-4-yl)-N-{[5-(trifluoromethyl)-1H-benzimidazol-2-yl]methyl}pyrazolo[1,5-a][1,3,5]triazin-4-amine] are 0.00457 µM, 266 and 1.21 µM.
The corresponding values for `Fc1cc2nc(CNc3nc(N4CC5CCC(C4)N5)nc4c(Br)cnn34)[nH]c2cc1Cl` [Example 348, 8-bromo-N-[(6-chloro-5-fluoro-1H-benzimidazol-2-yl)methyl]-2-(3,8-diazabicyclo[3.2.1]octan-3-yl)pyrazolo[1,5-a][1,3,5]triazin-4-amine] are 0.0053 µM, 546 and 2.89 µM.
For `CN(CC(C)(C)O)c1nc(NCc2nc3cc(C(F)(F)F)ccc3[nH]2)n2ncc(Br)c2n1` [Example 345, 1-{[8-bromo-4-({[5-(trifluoromethyl)-1H-benzimidazol-2-yl]methyl}amino)pyrazolo[1,5-a][1,3,5]triazin-2-yl](methyl)amino}-2-methylpropan-2-ol], in test [1], the DC50 amounted to 0.00398 µM and the “(IC50 CDK12 high ATP) to (Degradation DC50 CDK12) ratio” value stood at 166. Further, the IC50 at CDK12/CycK is 0.661 µM.
`FC(F)(F)Oc1ccc2[nH]c(CNc3nc(N4C[C@H]5CC[C@@H](C4)N5)nc4c(Br)cnn34)nc2c1` [Example 382, 8-bromo-2-[(1R,5S)-3,8-diazabicyclo[3.2.1]octan-3-yl]-N-{[5-(trifluoromethoxy)-1H-benzimidazol-2-yl]methyl}pyrazolo[1,5-a][1,3,5]triazin-4-amine]: in test [1], the DC50 came out at 0.0797 µM and the “(IC50 CDK12 high ATP) to (Degradation DC50 CDK12) ratio” value was determined as 10. Moreover, on CDK12/CycK, the IC50 worked out at 0.823 µM.
As for `CN1CCN(c2nc(NCc3nc4c(F)c(Cl)ccc4[nH]3)n3ncc(Br)c3n2)CC1` [Example 373, 8-bromo-N-[(5-chloro-4-fluoro-1H-benzimidazol-2-yl)methyl]-2-(4-methylpiperazin-1-yl)pyrazolo[1,5-a][1,3,5]triazin-4-amine], in test [1], the DC50 was 0.00112 µM and the “(IC50 CDK12 high ATP) to (Degradation DC50 CDK12) ratio” value worked out at 2719. Moreover, at CDK12/CycK, the IC50 came out at 3.06 µM.
`Clc1cc2nc(CNc3nc(N4CCOCC4)nc4c(Br)cnn34)[nH]c2cc1Cl` [Example 329, 8-bromo-N-[(5,6-dichloro-1H-benzimidazol-2-yl)methyl]-2-(morpholin-4-yl)pyrazolo[1,5-a][1,3,5]triazin-4-amine]: in test [1], the DC50 was found to be 0.00738 µM and the “(IC50 CDK12 high ATP) to (Degradation DC50 CDK12) ratio” value is 73. For the same compound, the IC50 on CDK12/CycK is 0.54 µM.
Regarding `CN(c1nc(NCc2nc3ccccc3[nH]2)n2ncc(Br)c2n1)[C@H]1C[C@@H](O)C1` [Example 364, cis-3-[(4-{[(1H-benzimidazol-2-yl)methyl]amino}-8-bromopyrazolo[1,5-a][1,3,5]triazin-2-yl)(methyl)amino]cyclobutan-1-ol], in test [1], the DC50 stood at 0.00381 µM and the “(IC50 CDK12 high ATP) to (Degradation DC50 CDK12) ratio” value turned out to be 1751. Also, the IC50 at CDK12/CycK amounted to 6.67 µM.
The corresponding values for `Brc1cnn2c(NCc3nc4ccccc4[nH]3)nc(N3CCN4CCC3CC4)nc12` [Example 349, N-[(1H-benzimidazol-2-yl)methyl]-8-bromo-2-(1,4-diazabicyclo[3.2.2]nonan-4-yl)pyrazolo[1,5-a][1,3,5]triazin-4-amine] are 0.00989 µM, 877 and 8.67 µM.
As for `FC(F)(F)c1ccc2[nH]c(CNc3nc(N4CCOCC4)nc4c(Br)cnn34)nc2c1` [Example 339, 8-bromo-2-(morpholin-4-yl)-N-{[5-(trifluoromethyl)-1H-benzimidazol-2-yl]methyl}pyrazolo[1,5-a][1,3,5]triazin-4-amine], in test [1], the DC50 stood at 0.00759 µM and the “(IC50 CDK12 high ATP) to (Degradation DC50 CDK12) ratio” value is listed as 204. Besides, the IC50 at CDK12/CycK came to 1.55 µM.
On the same counts, the results for `CN1CCN(c2nc(NCc3nc4c(F)c(Cl)ccc4[nH]3)n3ncc(C4CC4)c3n2)CC1` [Example 371, N-[(5-chloro-4-fluoro-1H-benzimidazol-2-yl)methyl]-8-cyclopropyl-2-(4-methylpiperazin-1-yl)pyrazolo[1,5-a][1,3,5]triazin-4-amine] are 0.00416 µM, 1263 and 5.25 µM.
On to `CN1CCN(c2nc(NCc3nc4cc(C(F)(F)F)ccc4[nH]3)n3ncc(Br)c3n2)CC1` [Example 344, 8-bromo-2-(4-methylpiperazin-1-yl)-N-{[5-(trifluoromethyl)-1H-benzimidazol-2-yl]methyl}pyrazolo[1,5-a][1,3,5]triazin-4-amine], for which, in test [1], the DC50 came to 0.00669 µM and the “(IC50 CDK12 high ATP) to (Degradation DC50 CDK12) ratio” value was 1251. Besides, at CDK12/CycK, the IC50 was 8.37 µM.
`Fc1cc2nc(CNc3nc(N4CCOCC4)nc4c(Br)cnn34)[nH]c2cc1Cl` [Example 336, 8-bromo-N-[(6-chloro-5-fluoro-1H-benzimidazol-2-yl)methyl]-2-(morpholin-4-yl)pyrazolo[1,5-a][1,3,5]triazin-4-amine]: in test [1], the DC50 was 0.00308 µM and the “(IC50 CDK12 high ATP) to (Degradation DC50 CDK12) ratio” value worked out at 256. Moreover, the IC50 at CDK12/CycK was 0.789 µM.
As to `CN1CCN(c2nc(NCc3nc4c(F)cccc4[nH]3)n3ncc(Cl)c3n2)CC1.O=CO` [Example 362, formic acid 8-chloro-N-[(4-fluoro-1H-benzimidazol-2-yl)methyl]-2-(4-methylpiperazin-1-yl)pyrazolo[1,5-a][1,3,5]triazin-4-amine], in test [1], the DC50 is 0.00785 µM and the “(IC50 CDK12 high ATP) to (Degradation DC50 CDK12) ratio” value is 1673. Moreover, the IC50 at CDK12/CycK came to 13.1 µM.
On to `CN1CCN(c2nc(NCc3nc4cc(OC(F)(F)F)ccc4[nH]3)n3ncc(Br)c3n2)CC1` [Example 377, 8-bromo-2-(4-methylpiperazin-1-yl)-N-{[5-(trifluoromethoxy)-1H-benzimidazol-2-yl]methyl}pyrazolo[1,5-a][1,3,5]triazin-4-amine], for which, in test [1], the DC50 was determined as 0.0202 µM and the “(IC50 CDK12 high ATP) to (Degradation DC50 CDK12) ratio” value is recorded as 252. On CDK12/CycK, the IC50 came to 5.09 µM.
The corresponding values for `Brc1cnn2c(NCc3nc4ccccc4[nH]3)nc(N3CC4CCC3CO4)nc12` (stereo not drawn) [Example 352, N-[(1H-benzimidazol-2-yl)methyl]-8-bromo-2-(2-oxa-5-azabicyclo[2.2.2]octan-5-yl)pyrazolo[1,5-a][1,3,5]triazin-4-amine] are 0.00568 µM, 925 and 5.25 µM.
